Assay results as given in patent publication US7691601B2, “Medium for detecting and/or identifying of microorganisms” (priority 2003, dated 2010).

What was measured:
[1] = tested on: free esterases in a stool sample; assay: Coloration at the point of deposit of the stool on Salmonella detection medium (Magenta C8); assay type: biochemical; set-up: key to Deposit coloration: 0=no coloration; 0.5=trace of coloration; 1=weak coloration; 2=strong coloration; conditions: for Deposit coloration: Table 3
Description: (§1) Preparation of the detection medium: A volume of 250 ml of detection medium is prepared from a powdered medium having the following composition:
(§2) Melting is carried out at 100° C., and the medium is autoclaved at 121° C. for 15 minutes. The additives are then added to the medium: Magenta C8 (500 mg/l; B-7102, BIOSYNTH, Staad, Switzerland); X-glucoside (75 mg/l; B-7250, BIOSYNTH, Staad, Switzerland); cefsulodine (10 mg/l; C 4786, Sigma, St Quentin Fallavier, France) and various concentrations of the inhibitor O,O-diethyl p-nitrophenyl phosphate (Paraoxon® ethyl; CAS No. 311-45-5; 36186, Riedel-de Haën, St Quentin Fallavier, France; 0; 1; 5 or 10 mg/l).
(§3) The various detection media thus obtained are then poured into Petri dishes.
(§4) Seeding of Salmonella bacteria: 10 μl of stools are deposited onto a Petri dish, this stool suspension is mixed or not mixed with 10 μl of a suspension of Salmonella (0.5 McF) and isolated as 3 dials on a Petri dish. Various […] and various Salmonella strains originating from the applicant's collection are used according to this protocol. The Petri dishes are incubated at 37° C. for 24 hours. The appearance of a coloration at the point of deposit of the stool (“deposit” column) and at the Salmonella colony (“colony” column) is read according to a semi-quantitative scale: • 0=no coloration • 0.5=trace of coloration • 1=weak coloration • 2=strong coloration The results obtained are given in Table 1.
as §2, with “O,O-dimethyl” for “O,O-diethyl”, “methyl;” for “ethyl;”, “950-35-6;” for “311-45-5; 36186,”, “5, 10, 25” for “0; 1; 5 or 10”
(§5) Seeding of Salmonella bacteria: The Petri dishes are inoculated, incubated and read as in Example 1.
(§6) Preparation of the detection medium: 250 ml of the medium of Example 1, in which the O,O-diethyl p-nitrophenyl phosphate is replaced with various concentrations of O,O-di-(2-chloroethyl)-O-(3-chloro-4-methylcoumarin-7-yl)phosphate (Haloxon®; CAS No. 321-55-1; R276995, Sigma, St Quentin Fallavier, France; 0; 1; 10; 100 or 1000 mg/l), are prepared according to the method of Example 1.
(§7) The various selection media thus obtained are then poured into Petri dishes.

Salmonella Enteritidis = assay: Coloration of Salmonella Enteritidis colonies on detection medium; assay type: cell-based; set-up: key: 0=no coloration; 0.5=trace of coloration; 1=weak coloration; 2=strong coloration
Description: as §1, §2, §3, §4
as §2, with “O,O-dimethyl” for “O,O-diethyl”, “methyl;” for “ethyl;”, “950-35-6;” for “311-45-5; 36186,”, “5, 10, 25” for “0; 1; 5 or 10”
as §5, §6, §7

Salmonella Paratyphi A = assay: Coloration of Salmonella Paratyphi A colonies on detection medium; assay type: cell-based; set-up: key: 0=no coloration; 0.5=trace of coloration; 1=weak coloration; 2=strong coloration
Description: as §1, §2, §3, §4, §6, §7, §5

free esterases in stools = assay: Coloration at the point of deposit of the stool on Candida detection medium; assay type: biochemical; conditions: summary in words
Description: as §1
(§8) Melting is carried out at 100° C., and the medium is autoclaved at 121° C. for 15 minutes. The additives are then added to the medium: Magenta C8 (500 mg/l; B-7102, BIOSYNTH, Staad, Switzerland); X-glucoside (75 mg/l; B-7250, BIOSYNTH, Staad, Switzerland); cefsulodine (10 mg/l; C 4786, Sigma, St Quentin Fallavier, France), and also the esterase inhibitor: • ? O,O-diethyl p-nitrophenyl phosphate: 5 mg/l • ? O,O-dimethyl p-nitrophenyl phosphate: 25 mg/l or • ? O,O-di-(2-chloroethyl)-O-(3-chloro-4-methylcoumarin-7-yl)phosphate: 75 mg/l
as §7
(§9) Seeding of yeast of the Candida genus: 10 μl of stools are deposited onto a Petri dish, and this stool suspension is mixed or not mixed with 10 μl of a suspension of Candida and isolated as 3 dials on a Petri dish. Various stools and various strains of Candida genus originating from the applicant's collection are used according to this protocol. The Petri dishes are incubated at 37° C. for 24 hours.
(§10) The appearance of a coloration at the point of deposit of the stool and in the Candida colonies is read according to a semi-quantitative scale: • 0=absence of coloration • 0.5=trace coloration • 1=weak coloration • 2=strong coloration.

Salmonella bacteria = assay: Enzymes originating from the bacteria (Salmonella colonies), overall statement; assay type: cell-based; conditions: summary in words
Description: as §4, §6, §7, §5

Candida dubliniensis = assay: Coloration of Candida dubliniensis colonies on detection medium; assay type: cell-based; set-up: key: 0=no coloration; 0.5=trace of coloration; 1=weak coloration; 2=strong coloration; conditions: Table 4, 75 mg/l
Description: as §1, §8, §7, §9, §10

Cc1c(Cl)c(=O)oc2cc(OP(=O)(OCCCl)OCCCl)ccc12 [O,O-di-(2-chloroethyl)-O-(3-chloro-4-methylcoumarin-7-yl) phosphate] gave a Deposit coloration ([1]; 1 mg/l, stool A, Salmonella Enteritidis) of 1, a Deposit coloration ([1]; 1 mg/l, stool A, Salmonella Paratyphi A) of 1 and a Deposit coloration ([1]; 1 mg/l, stool A, Salmonella Typhi) of 1. The Deposit coloration ([1]; 1 mg/l, stool A, no strain) was 1, the Deposit coloration ([1]; 1 mg/l, stool B, Salmonella Enteritidis) was 0 and the Deposit coloration ([1]; 1 mg/l, stool B, Salmonella Paratyphi A) was 0. It also gave a Deposit coloration ([1]; 1 mg/l, stool B, Salmonella Typhi) of 0, a Deposit coloration ([1]; 1 mg/l, stool B, no strain) of 1 and a Deposit coloration ([1]; 10 mg/l, stool A, Salmonella Enteritidis) of 1. The Deposit coloration ([1]; 10 mg/l, stool A, Salmonella Paratyphi A) was 1, the Deposit coloration ([1]; 10 mg/l, stool A, Salmonella Typhi) was 1 and the Deposit coloration ([1]; 10 mg/l, stool A, no strain) was 1. For the same molecule, the Deposit coloration ([1]; 10 mg/l, stool B, Salmonella Enteritidis) was 0, the Deposit coloration ([1]; 10 mg/l, stool B, Salmonella Paratyphi A) was 0 and the Deposit coloration ([1]; 10 mg/l, stool B, Salmonella Typhi) was 0. It also gave a Deposit coloration ([1]; 10 mg/l, stool B, no strain) of 0.5, a Deposit coloration ([1]; 100 mg/l, stool A, Salmonella Enteritidis) of 0.5 and a Deposit coloration ([1]; 100 mg/l, stool A, Salmonella Paratyphi A) of 0.5. The Deposit coloration ([1]; 100 mg/l, stool A, Salmonella Typhi) was 0.5, the Deposit coloration ([1]; 100 mg/l, stool A, no strain) was 0.5 and the Deposit coloration ([1]; 100 mg/l, stool B, Salmonella Enteritidis) was 0. The Deposit coloration ([1]; 100 mg/l, stool B, Salmonella Paratyphi A) was 0, the Deposit coloration ([1]; 100 mg/l, stool B, Salmonella Typhi) was 0 and the Deposit coloration ([1]; 100 mg/l, stool B, no strain) was 0. It also gave a Deposit coloration ([1]; 1000 mg/l, stool A, Salmonella Enteritidis) of 0, a Deposit coloration ([1]; 1000 mg/l, stool A, Salmonella Paratyphi A) of 0 and a Deposit coloration ([1]; 1000 mg/l, stool A, Salmonella Typhi) of 0. For the same molecule, the Deposit coloration ([1]; 1000 mg/l, stool A, no strain) was 0, the Deposit coloration ([1]; 1000 mg/l, stool B, Salmonella Enteritidis) was 0 and the Deposit coloration ([1]; 1000 mg/l, stool B, Salmonella Paratyphi A) was 0. For the same molecule, the Deposit coloration ([1]; 1000 mg/l, stool B, Salmonella Typhi) was 0, the Deposit coloration ([1]; 1000 mg/l, stool B, no strain) was 0 and the “Aspecific enzymatic reactions due to the presence of free enzymes” value ([1]; stools, Salmonella detection medium, summary in words) was “greatly inhibited”. For the same molecule, the Colonies coloration (Salmonella Enteritidis; Table 3, 1 mg/l, stool A) was 2, the Colonies coloration (Salmonella Enteritidis; Table 3, 1 mg/l, stool B) was 2 and the Colonies coloration (Salmonella Enteritidis; Table 3, 10 mg/l, stool A) was 2. For the same molecule, the Colonies coloration (Salmonella Enteritidis; Table 3, 10 mg/l, stool B) was 2, the Colonies coloration (Salmonella Enteritidis; Table 3, 100 mg/l, stool A) was 2 and the Colonies coloration (Salmonella Enteritidis; Table 3, 100 mg/l, stool B) was 2. For the same molecule, the Colonies coloration (Salmonella Enteritidis; Table 3, 1000 mg/l, stool A) was 2, the Colonies coloration (Salmonella Enteritidis; Table 3, 1000 mg/l, stool B) was 2 and the Colonies coloration (Salmonella Paratyphi A; Table 3, 1 mg/l, stool A) was 2. For the same molecule, the Colonies coloration (Salmonella Paratyphi A; Table 3, 1 mg/l, stool B) was 2, the Colonies coloration (Salmonella Paratyphi A; Table 3, 10 mg/l, stool A) was 2 and the Colonies coloration (Salmonella Paratyphi A; Table 3, 10 mg/l, stool B) was 2. The Colonies coloration (Salmonella Paratyphi A; Table 3, 100 mg/l, stool A) was 1, the Colonies coloration (Salmonella Paratyphi A; Table 3, 100 mg/l, stool B) was 1 and the Colonies coloration (Salmonella Paratyphi A; Table 3, 1000 mg/l, stool A) was 0.5. For the same molecule, the Colonies coloration (Salmonella Paratyphi A; Table 3, 1000 mg/l, stool B) was 0.5, the “Aspecific enzymatic reactions due to the presence of free enzymes” value (free esterases in stools) was “greatly inhibited” and the “Enzymes originating from the bacteria” value (Salmonella bacteria) was “not inhibited”. The Colonies coloration (Candida dubliniensis; stool A) was 1 and the Colonies coloration (Candida dubliniensis; stool B) was 1.
